From patent US9763985B2, “Antigen-specific central-memory T cell preparations having high CD4+ fraction” (priority 2011, dated 2017)

B1: Daclizumab (antibody, chains of the INN, looked up, V domains shown)
VH: QVQLVQSGAEVKKPGSSVKVSCKASGYTFTSYRMHWVRQAPGQGLEWIGYINPSTGYTEYNQKFKDKATITADESTNTAYMELSSLRSEDTAVYYCARGGGVFDYWGQGTLVTVSS
VL: DIQMTQSPSTLSASVGDRVTITCSASSSISYMHWYQQKPGKAPKLLIYTTSNLASGVPARFSGSGSGTEFTLTISSLQPDDFATYYCHQRSTYPLTFGQGTKVEVK
notes: humanized monoclonal antibody against the alpha chain of IL2-receptor complex, CAS number 152923-59-3; b50 calls it Simulect

Legend:
Format in all cases: cell-based, human
CMV-specific T cells [1] = test: Expansion of CMV-specific T cell culture over 18 days; conditions: for expansion of central memory T cells (TCM): after 18 d of treatment, FIG. 4D
Method: (§1) CMV-specific T-cells were enriched and expanded using a previously described technique (Becker et al., Nat. Med. 2001, 7, 1159-62). Briefly, 4×10^7 autologous PBMCs were stimulated for 6 h with 1 μg/mL overlapping human cytomegalovirus phosphoprotein 65 (pp65) and immediately early 1 protein (IE1) peptide pools (JPT Peptide Technologies). Pools consisted of 15-mer peptides overlapping by 10 amino acids and were dissolved in dimethyl sulfoxide (DMSO). IFNγ producing cells underwent positive selection by the IFNγ capture-system (Miltenyi Biotech) according to the protocol provided by the manufacturer. IFNγ+ cells were next cultured for 18 days in 24-well plates together with 10^7 irradiated autologous PBMCs using RPMI 1640 supplemented with 10% fetal bovine serum 1% Penicillin/Streptomycin (Biochrom) and 50 U/mL rIL2 (Chiron) and 10 ng/mL rIL7 (Cellgenix) or solitary when indicated elsewise. Where indicated, either mTor-inhibitor (sirolimus, Sigma-Aldrich) at very low dose (VLD, 2 nM) and low dose (LD, 20 nM) or IL2 receptor antagonist (Basiliximab, Simulect, Novartis) at 20 μg/mL were added from day 1 on every two days together with subsequent media supplementation.

[2] = test system: CMV strain NEWT infected autologous monocytes; test: Response of expanded T cells to NEWT infected autologous monocytes / iDC; conditions: co-culture 18 h, T cell/target ratio 10:1
Method: Differentiated monocytes infected with CMV-related laboratory wildtype strain NEWT were used as targets. To mimic CMV-infection, autologous LCL were pulsed with 1 μg/mL overlapping CMVpp65/IE-1 peptide pools, whereas unpulsed LCL display uninfected targets. Targets were labeled with 10 μM carboxyfluorescein succinimidyl ester (CFDA-SE Molecular Probes). As controls, unpulsed LCL and uninfected differentiated monocytes (Fibroblast incubated) were labeled with 5 μM dimethyldodecylamine oxide-succinimidyl ester (Far Red; Invitrogen). Cells were co-cultured for 16 h in T cell/target ratio of 10:1. Probes were analyzed as triplicates using LSR-II flow cytometer. […] Analysis was gated on live/dead-discrimination staining-dye negative cells (near-IR fluorescent reactive dye, Invitrogen). The mean percent survival of pulsed or NEWT infected targets was calculated relative to antigen-unpulsed controls. Percentaged lytic activity of target lysis was calculated as follows: mean percent survival of targets in cultures containing defined numbers of effector T cells in comparison to control cells without T cells. […]
Following antigen specific stimulation, cytokine secretion (IFNγ, TNFα and IL2) and activation marker expression (CD137 and CD154) were determined by intracellular fluorescence staining. […] Cells were measured with a LSR-II flow cytometer and analyzed using FlowJo Version 8 software (Tree Star). […]

CMV-specific T cells [3] = test: Differentiation / central memory phenotype (CCR7, CD45RA, CD62L, CD127) of expanded CMV-specific T cells; conditions: for CD62L expression on purified CD8+ T cells: CD8+ T cells cultured separately; for CD62L expression on purified CD8+ T cells / CD62L expression, CD8+ T cell bulk cultures and separately cultured CD4+ T cells: FIG. 12; for expression of the cell surface marker CD62L: CMV specific T-cell lines, day 18, six independent experiments; for central/memory T cells (CCR7+ CD45RA-): after 18 days of expansion; for expansion rate and keeping the TCM phenotype with full functionality: cultivation with both IL-2 and IL-7, FIG. 13; for CD62L expression, CD8+ T cell bulk cultures and separately cultured CD4+ T cells: rapamycin LD; for TCM formation: together with either IL-2 or IL-7, FIG. 13, four independent experiments
Method: as §1
(§2) Following antigen specific stimulation, cytokine secretion (IFNγ, TNFα and IL2) and activation marker expression (CD137 and CD154) were determined by intracellular fluorescence staining. All antibodies were purchased from Becton Dickinson (BD), except indicated. Virus infected monocytes and peptide-pool loaded LCL or monocytes (1 μg/mL IE-1/pp65) were added to T cells in diluting ratio of 1:10. Unpulsed LCL or monocytes (DMSO incubated) display unstimulated control. For effector cytokine detection, cultured T cells were re-stimulated for 18 h in the presence of 1 μg/mL brefeldin A (Sigma-Aldrich). For CD107a (H4A3) detection, 2 μM monensin (Golgi Stop, BD) was ancillary added. Cells were then harvested and phenotype was stained with monoclonal antibodies for surface markers CD3 (UCHT1, eBioscience), CD8 (3B5, Invitrogen) and CD4 (SK3). To define memory phenotypes, T cells were extracellularly stained for CCR7 (#150503, R&D), CD62L (DREG56, Beckman Coulter), CD45RA (2H4LDH11LDB9, Beckman Coulter) and CD127 (hIL-7R-M21). To exclude dead cells, live/dead-discrimination staining-dye (Invitrogen) was added. Subsequently, cells were permeabilized with Perm2 solution (BD Biosciences) and stained for IFNγ (4S.B3, eBiosciences), TNFα (MAb11), IL2 (MQ1-17H12), CD137 (4B4-1) and CD154 (TRAP1). To define regulatory T cells, T cells were stained intranuclear for Foxp3 (259D/C7) and Helios (22F6, BioLegend). For intracellular staining of Foxp3 and Helios, Foxp3 staining kit from eBioscience was used. Cells were measured with a LSR-II flow cytometer and analyzed using FlowJo Version 8 software (Tree Star). Lymphocytes were gated based on the FSC versus SSC profile and subsequently gated on FSC (height) versus FSC to exclude doublets.

CMV-specific T cells [4] = test: CD4+ and CD8+ expression of CMV-specific T cells after 18 days of expansion (flow cytometry); conditions: for CD4+/CD8+ T cell ratio: after 18 days of expansion, Sirolimus LD 20 nmol/l or VLD 2 nmol/l, aIL2R 20 μg/mL, every 2 days; for CD4+ T cell proportion in the culture: after 18 d expansion
Method: as §1
as §2, with “Lymphocytes were gated based on the FSC versus SSC profile and subsequently gated on FSC (height) versus FSC to exclude doublets.” left out

CMV-specific T cells [5] = test: Intracellular cytokine and activation marker staining after antigen specific stimulation with peptide loaded APCs; conditions: for quantity and quality of virus-specific T cells: in vitro
Method: as §2
CD4+ and CD8+ T cells (A Sirolimus; B aIL2R antagonist). Frequencies were assessed following antigen specific stimulation. Specific T-cells were stimulated for 18 h (16 h Brefeldin A) w/peptide loaded APCs in ratio of 1:10. APCs were pulsed with 1 μg/mL IE-1/pp65 peptide pool. IFNγ, TNFα and IL2 cytokine secretion and CD137 and CD154 activation marker expression were determined by intracellular staining. Cells were permeabilized and stained for IFNγ, IL2, TNFα, live/dead dye, CD3, CD4, CD8, CD137 and CD154.

[6] = day 18, after antigen specific stimulation

Molecule | clonal expansion (CMV-specific T cells [1]; 18 days of expansion) | expansion of central memory T cells (TCM) (CMV-specific T cells [1]) | response to NEWT infected autologous monocytes (IFNγ, TNFα, CD137, CD154) [2] | CD62L expression on purified CD8+ T cells (CMV-specific T cells [3]) | expression of the cell surface marker CD62L (CMV-specific T cells [3]) | central/memory T cells (CCR7+ CD45RA-) (CMV-specific T cells [3]) | expansion rate and keeping the TCM phenotype with full functionality (CMV-specific T cells [3]) | CD62L expression, CD8+ T cell bulk cultures and separately cultured CD4+ T cells (CMV-specific T cells [3]) | TCM formation (CMV-specific T cells [3]) | CD4+/CD8+ T cell ratio (CMV-specific T cells [4]) | CD4+ T cell proportion in the culture (CMV-specific T cells [4]) | CD137 activation marker expression on CD8+ T cells (CMV-specific T cells [5]; [6]) | CD137 and CD154 activation marker expression on CD4+ T cells (CMV-specific T cells [5]; [6]) | quantity and quality of virus-specific T cells (CMV-specific T cells [5])
CO[C@H]1C[C@@H]2CC[C@@H](C)[C@@](O)(O2)C(=O)C(=O)N2CCCC[C@H]2C(=O)O[C@H]([C@H](C)C[C@@H]2CC[C@@H](O)[C@H](OC)C2)CC(=O)[C@H](C)/C=C(\C)[C@@H](O)[C@@H](OC)C(=O)[C@H](C)C[C@H](C)/C=C/C=C/C=C/1C [Sirolimus] | without affecting clonal expansion | sequential expansion of both CD4 and CD8 central memory T cells | superiorly respond | could not be enhanced | significant prolonged expression | significantly increases central/memory T cells | best results | increased CD62L expression | promotes TCM formation | more balanced CD4+/CD8+ T cell ratio | increased the CD4+ T cell proportion | dose-dependent elevated | not impaired | enhance the quantity and quality
Basiliximab [aIL2R] | – | sequential expansion of both CD4 and CD8 central memory T cells | superiorly respond | could not be enhanced | significant prolonged expression | significantly increases central memory T cells | best results | increased CD62L expression | promotes TCM formation | more balanced CD4+/CD8+ T cell ratio | – | dose-dependent elevated | – | –
B1 | – | – | – | – | – | – | – | – | – | – | increased the CD4+ T cell proportion | – | – | enhance the quantity and quality
